In US20260217688A1, “INHIBITORS OF JAK2” (Llydaw Therapeutics, Inc., priority 2022, published 2026):
pEC50: −log10 of the molar value.

Legend:
JAK2 JH2 = target: T1, JAK2 JH2 (Homo sapiens, UniProt O60674); assay: JAK2 JH2 TR-FRET Assay; assay type: binding; details: JAK2 JH2 1 nM, Tracer ZE84-0003 10 nM
T1 construct: Enzyme: JAK2 JH2, His-Avi-Tag, Biotin-Labeled (BPS Bioscience, Cat #79074) 1 nM; His; purchased BPS Bioscience 79074
Method: Assay Buffer 1×: • 20 mM HEPES pH 7.2-7.4; • 10 mM MgCl2; • 0.015% Brij-35; • 2 mM DTT; • 0.05 mg/ml BSA.
Final assay concentrations: • DMSO: 0.25%; • Streptavidin Tb-cryptate (Cisbio, Cat #610SATLB) 0.2 nM; • Enzyme: JAK2 JH2, His-Avi-Tag, Biotin-Labeled (BPS Bioscience, Cat #79074) 1 nM; • Probe: Tracer ZE84-0003 (ChemRar) 10 nM.
Materials: • Reaction plate: ProxiPlate-384 Plus White Plate (PerkinElmer); • Dilution plate: Diamond Well Plate (Axygen, Cat #P-384-120 SQ-C-S); • Compounds plate: Diamond Well Plate (Axygen, Cat #P-384-120 SQ-C-S).
Assay protocol: • 1. Prepare 400× solutions of compounds in DMSO into Compounds plate; • 2. Prepare Dilution plate: add 39 μL of 1× Assay buffer per well of Dilution plate; • 3. Prepare 2×Tb-cryptate mix in 1× Assay buffer. Add 10 μL of 2×Tb-cryptate mix to K-(Tb-cryptate and Probe without Enzyme) wells and blank (Tb-cryptate without Probe and Enzyme) wells; • 4. Add JAK2 JH2 into the rest of 2×Tb-cryptate mix to make 2×JAK2 JH2+Tb-cryptate mix. Add 10 μL per well into Reaction plate; • 5. Centrifuge plate at 200 g for 1 min; • 6. Dilute 1 μL of 400× compounds in 39 μL 1× Assay buffer in Dilution plate; • 7. Add 2 μL of 10× compounds from Dilution plate to Reaction plate with 10 μL of JAK2 JH2+Tb-cryptate mix; • 8. Centrifuge plate at 200 g for 1 min; • 9. Pre-incubate Reaction plate with compounds 15 min; • 10. Prepare 2.5× Tracer mix; • 11. Add 8 μL of 2.5× Tracer mix into appropriate wells of Reaction plate; • 12. Centrifuge plate at 800 g for 3 min; • 13. Incubate at rt for 15 min; • 14. Measure Fluorescence using Microplate Reader (Ex: TR, Em1/Em2: 482/520). The results of this assay are shown in the Table B. The values of EC50 shown as a letters A-D, where: A≤0.01 μM; 0.01 μM<B≤0.05 μM; 0.05 μM<C≤0.1 μM; D>0.1.

[1] = Proliferation inhibition assay (CellTiter-Glo), Ba/F3 JAK2 wt; assay type: cell-based; details: mouse, Ba/F3 (JAK2 wt) cells
Method: (§1) Ba/F3 (JAK2 wt) (ABM, T3076) cells and Ba/F3 (JAK2 V617F) (WuXi AppTec) cells were grown in RPMI-1640 (Gibco, cat. number 21870) supplemented with 10% FBS (Hyclone Laboratories Inc, Cat #SV30160.03), 1× Antibiotic-antimycotic (Gibco, Cat #15240-062), 2× Sodium pyruvate (Paneco, cat #F023), 2× Essential amino acids (Paneco, cat #F115/100), 1× Non-Essential amino acids (Paneco, cat #F116) at 37° C. in 5% CO2 atmosphere.
(§2) For the proliferation inhibition assay Ba/F3 (JAK2 wt) and Ba/F3 (JAK2 V617F) cells were seeded into a CellBIND® 384-well Flat Clear Bottom Black Polystyrene Microplates (Corning, USA, Cat #3770) at a density of 4000 cells per well in complete culture medium with or without 10 ng/ml rmIL-3 (RD systems, USA, Cat #403-ML-025) using Biomek FX/NX (384) liquid handler, 45 μl of cell suspension in complete culture medium per well. 500× compound's stocks in DMSO (Sigma Cat #D2650) were prepared in compounds plate (Diamond Well Plate, Axigen, Cat #P-384-120 SQ-C-S) applying Biomek 2000. 1 μl of 500× compounds stock was added to 49 μl of complete culture medium into Dilution plate (Diamond Well Plate, Axigen, Cat #P-384-120 SQ-C-S), mixed and then 5 μl of 10× compounds solution was transferred to cells using Biomek FX/NX (384) liquid handler. The centrifugation at 100 g for 1 min at Eppendorf 5810 followed. Final DMSO concentration in assay was 0.2%. All treatments were performed in technical and biological duplicates. Treated cells were incubated for 72 h at 37° C. with 5% CO2.
(§3) After 3 days of incubation, CellTiter-Glo Luminescent Cell Viability Assay (Promega) was performed. 10 μl of CellTiter-Glo (Promega, CAT #G7572) was added to the cells using Biomek FX/NX (384) liquid handler. The assay plate was centrifuged at 100 g for 1 min and luminescence signal was measured using Microplate Reader (CLARIOStar).

[2] = Proliferation inhibition assay (CellTiter-Glo), Ba/F3 JAK2 V617F; assay type: cell-based; details: mouse, Ba/F3 (JAK2 V617F) cells; with 10 ng/ml rmIL-3, 72 h; read-out: Ba/F3 JAK2 V617F + IL3, CC50 3 days
Method: as §1, §2, §3

Ba/F3 (JAK2 V617F) cells = assay: as above; assay type: cell-based; details: Mus musculus, BaF3; without IL3, 72 h; read-out: Ba/F3 JAK2 V617F, CC50 3 days
Method: as §1, §2, §3

[3] = with 10 ng/ml rmIL-3, 72 h, read-out: Ba/F3 JAK2 wt + IL3, CC50 3 days
[4] = without IL3, 72 h, read-out: Ba/F3 JAK2 wt, CC50 3 days

T1 sequence (O60674 545-809 limits assumed): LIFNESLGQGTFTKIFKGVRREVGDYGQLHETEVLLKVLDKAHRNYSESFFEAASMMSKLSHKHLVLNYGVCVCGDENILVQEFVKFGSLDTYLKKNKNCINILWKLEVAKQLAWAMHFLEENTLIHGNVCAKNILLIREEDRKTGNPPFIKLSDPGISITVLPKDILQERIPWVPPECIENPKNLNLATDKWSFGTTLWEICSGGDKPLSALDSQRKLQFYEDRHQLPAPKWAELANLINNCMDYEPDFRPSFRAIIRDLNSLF

Compound	pEC50 (JAK2 JH2)	CC50 at 72 h [1, 3]	CC50 at 72 h [1, 4]	CC50 at 72 h [2]	CC50 (Ba/F3 (JAK2 V617F) cells)
COc1c(Nc2nc(Nc3cnn(C)c3)ncc2C(N)=O)cccc1-c1ncn(C)n1 [Compound 1, 4-((2-Methoxy-3-(1-methyl-1H-1,2,4-triazol-3-yl)phenyl)amino)-2-((1-methyl-1H-pyrazol-4-yl)amino)pyrimidine-5-carboxamide]	7.30 to 8.00	> 10 µM	> 10 µM	5 to 10 µM	1 to 5 µM
COc1c(Nc2nc(Nc3cnn(C)c3)ncc2C(N)=O)cccc1-c1ccccn1 [Compound 2, 4-[2-methoxy-3-(2-pyridyl)anilino]-2-[(1-methylpyrazol-4-yl)amino]pyrimidine-5-carboxamide]	7.00 to 7.30	> 10 µM	> 10 µM	1 to 5 µM	≤ 0.5 µM
COc1c(Nc2nc(Nc3cnn(C)c3)ncc2C(N)=O)cccc1-c1nnc(C)o1 [Compound 3, 4-[2-methoxy-3-(5-methyl-1,3,4-oxadiazol-2-yl)anilino]-2-[(1-methylpyrazol-4-yl)amino]pyrimidine-5-carboxamide]	7.30 to 8.00	> 10 µM	> 10 µM	> 10 µM	5 to 10 µM
COc1c(Nc2nc(Nc3cnn(C(C)C)c3)ncc2C(N)=O)cccc1-c1ncn(C)n1 [Compound 4, 2-((1-Isopropyl-1H-pyrazol-4-yl)amino)-4-((2-methoxy-3-(1-methyl-1H-1,2,4-triazol-3-yl)phenyl)amino)pyrimidine-5-carboxamide]	≥ 8.00	5 to 10 µM	5 to 10 µM	1 to 5 µM	≤ 0.5 µM
COc1c(Nc2nc(Nc3cnn(CCN(CC(C)C)CC(C)C)c3)ncc2C(N)=O)cccc1-c1ccccn1 [Compound 42, 2-[[1-[2-(diisobutylamino)ethyl]pyrazol-4-yl]amino]-4-[2-methoxy-3-(2-pyridyl)anilino]pyrimidine-5-carboxamide]	< 7.00	5 to 10 µM			1 to 5 µM
COc1c(Nc2nc(Nc3cnn(C4CCOCC4)c3)ncc2C(N)=O)cccc1-c1nc2ccccc2o1 [Compound 44, 4-[3-(1,3-benzoxazol-2-yl)-2-methoxy-anilino]-2-[(1-tetrahydropyran-4-ylpyrazol-4-yl)amino]pyrimidine-5-carboxamide]	7.30 to 8.00	1 to 5 µM			≤ 0.5 µM
COc1c(Nc2nc(Nc3cnn(C4CCCCC4)c3)ncc2C(N)=O)cccc1-c1nc2ccccc2o1 [Compound 45, 4-[3-(1,3-benzoxazol-2-yl)-2-methoxy-anilino]-2-[(1-cyclohexylpyrazol-4-yl)amino]pyrimidine-5-carboxamide]	< 7.00	5 to 10 µM			0.5 to 1 µM
COc1c(Nc2nc(Nc3cnn(CCCN(C)C)c3)ncc2C(N)=O)cccc1-c1nc2ccccc2o1 [Compound 46, 4-[3-(1,3-benzoxazol-2-yl)-2-methoxy-anilino]-2-[[1-[3-(dimethylamino)propyl]pyrazol-4-yl]amino]pyrimidine-5-carboxamide]	7.00 to 7.30	1 to 5 µM			≤ 0.5 µM
COc1c(Nc2nc(Nc3cnn(C4CCN(C)CC4)c3)ncc2C(N)=O)cccc1-c1ccccn1 [Compound 47]	< 7.00	5 to 10 µM			1 to 5 µM
COc1c(Nc2nc(Nc3cnn(C4CCN(C(C)C)CC4)c3)ncc2C(N)=O)cccc1-c1ccccn1 [Compound 48, 2-[[1-(1-isopropyl-4-piperidyl)pyrazol-4-yl]amino]-4-[2-methoxy-3-(2-pyridyl)anilino]pyrimidine-5-carboxamide]	7.00 to 7.30	1 to 5 µM			≤ 0.5 µM
COc1c(Nc2nc(Nc3cnn(C45CC6CC(CC(C6)C4)C5)c3)ncc2C(N)=O)cccc1-c1nc2ccccc2o1 [Compound 49, 2-[[1-(1-adamantyl)pyrazol-4-yl]amino]-4-[3-(1,3-benzoxazol-2-yl)-2-methoxy-anilino]pyrimidine-5-carboxamide]	< 7.00	5 to 10 µM			5 to 10 µM
COCCn1cc(Nc2ncc(C(N)=O)c(Nc3cccc(-c4nc5ccccc5o4)c3OC)n2)cn1 [Compound 50]	7.30 to 8.00	> 10 µM			≤ 0.5 µM
COCCn1cc(Nc2ncc(C(N)=O)c(Nc3cccc(-c4ncn(C)n4)c3OC)n2)cn1 [Compound 51]	7.30 to 8.00	> 10 µM			1 to 5 µM
COCCCn1cc(Nc2ncc(C(N)=O)c(Nc3cccc(-c4nc5ccccc5o4)c3OC)n2)cn1 [Compound 52, 4-[3-(1,3-benzoxazol-2-yl)-2-methoxy-anilino]-2-[[1-(3-methoxypropyl)pyrazol-4-yl]amino]pyrimidine-5-carboxamide]	7.30 to 8.00	1 to 5 µM			≤ 0.5 µM
COCCCn1cc(Nc2ncc(C(N)=O)c(Nc3cccc(-c4ncn(CCCOC)n4)c3OC)n2)cn1 [Compound 53]	7.30 to 8.00	> 10 µM			1 to 5 µM
CCOCCn1cc(Nc2ncc(C(N)=O)c(Nc3cccc(-c4nc5ccccc5o4)c3OC)n2)cn1 [Compound 54]	7.30 to 8.00	1 to 5 µM			≤ 0.5 µM
CCOCCn1cc(Nc2ncc(C(N)=O)c(Nc3cccc(-c4ncn(C)n4)c3OC)n2)cn1 [Compound 55, 2-[[1-(2-ethoxyethyl)pyrazol-4-yl]amino]-4-[2-methoxy-3-(1-methyl-1,2,4-triazol-3-yl)anilino]pyrimidine-5-carboxamide]	7.30 to 8.00	> 10 µM			1 to 5 µM
COc1c(Nc2nc(Nc3cnn(CC(C)C)c3)ncc2C(N)=O)cccc1-c1nc2ccccc2o1 [Compound 56, 4-[3-(1,3-benzoxazol-2-yl)-2-methoxy-anilino]-2-[(1-isobutylpyrazol-4-yl)amino]pyrimidine-5-carboxamide]	< 7.00	5 to 10 µM			0.5 to 1 µM
COc1c(Nc2nc(Nc3cnn(CC(F)(F)F)c3)ncc2C(N)=O)cccc1-c1nc2ccccc2o1 [Compound 57, 4-[3-(1,3-benzoxazol-2-yl)-2-methoxy-anilino]-2-[[1-(2,2,2-trifluoroethyl)pyrazol-4-yl]amino]pyrimidine-5-carboxamide]	< 7.00	> 10 µM			> 10 µM
